From patent US20220151979A1, “COMPOSITION FOR PREVENTION OR TREATMENT OF CARDIOVASCULAR AND METABOLIC DISEASE COMPRISING NORANHYDROICARITIN” (SEOUL NATIONAL UNIVERSITY HOSPITAL, priority 2019, published 2022)

Columns and labels:
HepG2 cells = assay: MTT cell viability of HepG2 cells; type: cell-based, human
Experimental: In order to confirm the toxicity of noranhydroicaritin to cells, HepG2 cells (human liver hepatocellular carcinoma) were treated with each of kaempferol and noranhydroicaritin at various concentrations, and the cell viability of HepG2 cells at each concentration was calculated through the MTT screening method.
Specifically, HepG2 cells were suspended in DMEM (Welgene Inc.) medium containing 10% fetal bovine serum at a concentration of 1×10^5 cells/mL, and 100 μL thereof was inoculated into each well of a 96-well plate. After 4 hours, the HepG2 cells in the well plate were treated with each of kaempferol and noranhydroicaritin samples at concentrations of 2.5 μM, 5 μM, 10 μM, and 20 μM. After incubation for 24 hours, 5 μL of MTT (5 mg/mL) was added to the well plate, and the cells were further incubated for 4 hours. Thereafter, the medium was removed, 100 μL of DMSO was added to the well plate, the reaction was conducted, and then the absorbance was measured at 570 nm. As a control, cholesterol synthesis inhibitors atorvastatin (Ato) and rosuvastatin (Ros) were used. The cell viability was calculated according to the following mathematical formula as a value relative to 100% of the value for the negative control treated only with DMSO. The results are illustrated in FIG. 1. […]

SREBP 1 promoter = assay: SREBP 1 promoter-reporter luciferase assay in HEK293T cells; type: cell-based, human; settings: pGL4.14-SREBP-transfected HEK293T cells, 18 hours, compared to control
Experimental: (§1) In order to confirm the SREBP gene expression inhibitory effect of noranhydroicaritin, HEK293T cells were treated with noranhydroicaritin and kaempferol, and it was confirmed whether the expression of SREBP was inhibited through a luciferase assay.
(§2) i) A primer was prepared to contain KpnI and XhoI restriction enzyme sites in the SREBP 1 and 2 promoter gene region, and then PCR (polymerase chain reaction) and electrophoresis on an agarose gel were performed to isolate SREBP promoter region DNA. A pGL4.14-[luc2/Hygro] vector containing a firefly luciferase as a reporter gene was treated with the same restriction enzymes (KpnI and XhoI), and then isolated via agarose gel electrophoresis and gel extraction. The purely isolated SREBP promoter gene region and pGL4.14-[luc2/Hygro] vector were reacted for 1 hour using In-fusion DNA ligase (Takara), and then transformed into E. coli to prepare a promoter-reporter construct in which the SREBP promoter was inserted, and this was named pGL4.14-SREBP.
(§3) ii) In order to measure the transcriptional activity of the SREBP promoter gene, HEK293T cells were transfected with pGL4.14-SREBP, and then the luciferase activity of the cell extract was measured. […] Thereafter, the luciferase activity was measured by the method of Example 6. […]

TNF-α = assay: Immunofluorescence of TNF-α in carotid artery, mouse arteriosclerosis model; type: in vivo; settings: 10 μg/g/day
Experimental: (§4) Carotid artery ligation was performed one week after injection of AAV-PCSK9 Virus (1×10^11 IFU/mL) and noranhydroicaritin (10 μg/g/day). After 3 weeks of ligation, it was confirmed whether the atherosclerosis model was completed, and gross plaque imaging and immunofluorescence were performed to confirm the arteriosclerosis inhibitory effect of noranhydroicaritin.
(§5) Furthermore, the arteriosclerosis inhibitory effect of noranhydroicaritin was confirmed using immunofluorescence. Specifically, a mouse carotid artery was obtained and fixed in 4% PFA for one day, and then prepared into a block. As the inflammatory response in blood vessels progresses, the arteriosclerosis worsens, and thus the marker […] of macrophages causing arteriosclerotic inflammatory response and TNF-α, IL-1B, and MCP-1, which are pro-inflammatory cytokines secreted when the inflammatory response occurs, were stained. Staining was performed using the antibody for each of CAP1(1:200), PCSK9(1:100), F4/80(1:100), TNF-α(1:100), […], and MCP-1(1:100), then imaging was performed using a confocal microscope, and […] was evaluated.

F/480 = assay: Immunofluorescence of macrophage marker F/480 in carotid artery, mouse arteriosclerosis model; type: in vivo; settings: 10 μg/g/day
Experimental: as §4, §5

MCP-1 = assay: Immunofluorescence of MCP-1 in carotid artery, mouse arteriosclerosis model; type: in vivo; settings: 10 μg/g/day
Experimental: as §4, §5

SREBP 2 promoter = assay: SREBP 2 promoter-reporter luciferase assay in HEK293T cells; type: cell-based, human; settings: pGL4.14-SREBP-transfected HEK293T cells, 18 hours, compared to control
Experimental: as §1, §2, §3

CC(C)=CCc1c(O)cc(O)c2c(=O)c(O)c(-c3ccc(O)cc3)oc12 [Noranhydroicaritin, noranhydroicaritin]
cell viability (HepG2 cells; 20 μM, 24 hours, MTT, relative to DMSO negative control): ≥ 90%
cell viability compared with control (HepG2 cells; same concentration as atorvastatin or rosuvastatin): higher than the cell viability of the cells treated with atorvastatin or rosuvastatin
SREBP 1 luciferase activity (SREBP 1 promoter): significantly decreased
expression of TNF-α (immunofluorescence) (TNF-α): decreased
expression of F/480, a marker of macrophages (immunofluorescence) (F/480): also decreased
expression of MCP-1 (immunofluorescence) (MCP-1): decreased
SREBP 2 luciferase activity (SREBP 2 promoter): significantly decreased
